# Patent US12616716B2, “Wound healing dressings and formulations and methods of use thereof” (Polaroid IP B.V., priority 2023, dated 2026)
# Experiments:
# [1] = tested on: Staphylococcus aureus ATCC 29213; assay: MBC, spot plating after 24 h in MH broth; settings: A = Staphylococcus aureus 29213
# Protocol: (§5) To determine MBC compound concentrations breakpoints were estimated from MIC curves. Overnight cultures were set up as described above for all bacterial strains. The following day overnight cultures were adjusted to give a cell density of 5×10^5 cells per mL. Briefly, cultures were adjusted to the McFarland standard (0.08-0.12) and diluted (1:150). Adjusted cultures were inoculated into 96 well plates with 50 μL sterile Muller-Hinton broth (MHB) and 2 concentrations of each compound. […] MBC cultures were quantified by serial dilution in a 96 well plate and spot plating onto Muller-Hinton agar (MHA). MHA plates were incubated at 37° C. for 24 h and counted. Results are presented as CFU per mL.
# (§6) To determine MBC compound concentrations, breakpoints were estimated from MIC curves. Overnight cultures were set up as described above for all bacterial strains. The following day overnight cultures were adjusted to give a cell density of 5×10^5 cells per mL. Briefly, cultures were adjusted to the McFarland standard (0.08-0.12) and diluted (1:150). Adjusted cultures were inoculated into 96 well plates with 50 μL sterile Muller-Hinton broth (MHB) and 2 concentrations of each compound. […] MBC cultures were quantified by serial dilution in a 96 well plate and spot plating onto Muller-Hinton agar (MHA). MHA plates were incubated at 37° C. for 24 hours and counted.
# (§7) These compounds were tested for their MBC against a panel of ATCC and nosocomial bacteria.
# [2] = tested on: Staphylococcus aureus MR1; assay: MBC, spot plating after 24 h in MH broth; settings: B = Staphylococcus aureus MR1
# Protocol: as §5, §6, §7
# [3] = tested on: Staphylococcus aureus NRS384; assay: MBC, spot plating after 24 h in MH broth; settings: C = Staphylococcus aureus NRS384
# Protocol: as §5
# (§8) To determine MBC compound concentrations, breakpoints were estimated from MIC curves. Overnight cultures were set up as described above for all bacterial strains. The following day overnight cultures were adjusted to give a cell density of 5×10^5 cells per mL. Briefly, cultures were adjusted to the McFarland standard (0.08-0.12) and diluted (1:150). Adjusted cultures were inoculated into 96 well plates with 50 μL sterile Muller-Hinton broth (MHB) and 2 concentrations of each compound. […] MBC cultures were quantified by serial dilution in a 96 well plate and spot plating onto Muller-Hinton agar (MHA). MHA plates were incubated at 37° C. for 24 hours and counted. […]
# [4] = tested on: Enterococcus faecalis EF19433; assay: MBC, spot plating after 24 h in MH broth; settings: E = Enterococcus faecalis EF19433
# Protocol: as §5, §6, §7
# [5] = tested on: Enterococcus faecalis EF51299; assay: MBC, spot plating after 24 h in MH broth; settings: D = Enterococcus faecalis EF51299
# Protocol: as §5, §8
# [6] = tested on: Klebsiella pneumoniae KL1; assay: MBC, spot plating after 24 h in MH broth; settings: F = Klebisella pneumoniae KL1
# Protocol: as §5, §8
# [7] = tested on: Pseudomonas aeruginosa 27853; assay: MBC, spot plating after 24 h in MH broth; settings: G = Pseudomonas aeruginosa 27853
# Protocol: as §5, §8
# [8] = tested on: Escherichia coli EC25922; assay: MBC, spot plating after 24 h in MH broth; settings: H = Escherichia coli EC25922
# Protocol: as §5, §6, §7
# [9] = tested on: Staphylococcus aureus ATCC 29213; assay: MIC, broth microdilution in MH broth with resazurin; type: cell-based; settings: Staphylococcus aureus, ATCC29213, read-out: MIC Concentration
# [10] = tested on: Staphylococcus aureus MR1; assay: as above; type: cell-based; settings: Staphylococcus aureus, MR1, read-out: MIC Concentration
# [11] = tested on: Staphylococcus aureus NRS384; assay: as above; type: cell-based; settings: Staphylococcus aureus, NRS384, read-out: MIC Concentration
# [12] = tested on: Enterococcus faecalis EF19433; assay: as above; type: cell-based; settings: Enterococcus faecalis, EF19433, read-out: MIC Concentration
# [13] = tested on: Klebsiella pneumoniae KL1; assay: as above; type: cell-based; settings: Klebsiella pneumoniae, KL1, read-out: MIC Concentration
# [14] = tested on: Pseudomonas aeruginosa 27853; assay: as above; type: cell-based; settings: Pseudomonas aeruginosa, 27853, read-out: MIC Concentration
# [15] = tested on: Escherichia coli EC25922; assay: as above; type: cell-based; settings: Escherichia coli, EC25922, read-out: MIC Concentration
# [16] = tested on: Staphylococcus aureus NRS384; assay: Murine wound infection model, in vivo antimicrobial efficacy (bacterial CFU/wound); settings: Study 2 pilot; daily application; 24 hrs and 72 hrs post-seeding
# [17] = tested on: S. aureus NRS 384; assay: Mouse Staphylococcus aureus-induced wound infection model, bacteria load in wound site; settings: for Ig(CFU/wound site) 12 h p.i. / ΔIg(CFU/wound site) vs 12 h infection control / Ig(CFU/wound site) 24 h p.i. / ΔIg(CFU/wound site) vs 24 h infection control / Ig (CFU/wound site) / ΔIg(CFU/wound site) vs infection control: twice a day
# [18] = tested on: Acinetobacter baumannii; assay: MIC, CLSI broth microdilution in CAMHB; type: cell-based; settings: NCTC13304, A. baumannii (NCTC 13304)
# Protocol: (§1) The bacterial strains tested included CLSI and NCTC reference and quality control (QC) strains from the following organism groups: Acinetobacter baumannii, Enterococcus faecalis, Escherichia coli, Klebsiella pneumoniae, Pseudomonas aeruginosa, and Staphylococcus aureus. Some strains contained molecularly characterized β-lactamase genes including carbapenemase (KPC-2) and extended-spectrum β-lactamase (SHV-18) genes.
# (§2) Isolates were tested for antimicrobial susceptibility using broth microdilution methodology according to CLSI M07 (2018) and M100 (2023) guidelines. Frozen-form, 96-well MIC panels were produced. The testing medium was cation-adjusted Mueller-Hinton broth (CAMHB). Single MIC values were measured for 8 test compounds against each of the 9 strains tested. Additional MIC values were generated for levofloxacin (comparator agent) against several of the QC strains.
# (§3) Compound stock solutions were prepared and allowed to mix overnight as needed. The pH of each stock solution was checked and adjusted as necessary until a minimum pH of 5.0 was achieved (pH range 5.0-7.0). Some compound stock solutions also required the addition of heat to assist in solubilization.
# (§4) Current CLSI quality assurance practices were followed when performing the broth microdilution susceptibility testing. MIC values were validated by concurrently testing a control agent (levofloxacin) against CLSI-recommended QC strains including S. aureus ATCC 29213 (methicillin susceptible), E. coli ATCC 25922, Enterococcus faecalis ATCC 29212, and P. aeruginosa ATCC 27853. The initial inoculum density (target, 5×10^5 CFU/mL) during susceptibility testing was monitored by bacterial colony counts.
# [19] = tested on: Enterococcus faecalis; assay: MIC, CLSI broth microdilution in CAMHB; type: cell-based
# Protocol: as §1, §2, §3, §4
# [20] = tested on: Escherichia coli; assay: MIC, CLSI broth microdilution in CAMHB; type: cell-based
# Protocol: as §1, §2, §3, §4
# [21] = tested on: Klebsiella pneumoniae; assay: MIC, CLSI broth microdilution in CAMHB; type: cell-based
# Protocol: as §1, §2, §3, §4
# [22] = tested on: Pseudomonas aeruginosa; assay: MIC, CLSI broth microdilution in CAMHB; type: cell-based; settings: ATCC27853, P. aeruginosa (ATCC 27853)
# Protocol: as §1, §2, §3, §4
# [23] = tested on: Staphylococcus aureus; assay: MIC, CLSI broth microdilution in CAMHB; type: cell-based; settings: ATCC29213, S. aureus (ATCC 29213)
# Protocol: as §1, §2, §3, §4
# [24] = 1 mg/ml, 10 μL/wound site, 10 μg/wound site, 12 h p.i.
# [25] = 1 mg/ml, 10 μL/wound site, 10 μg/wound site, 24 h p.i.
# [26] = Study II, 1 mg/ml, 10 μL/wound site
# [27] = Study III, 48 h p.i., 1 mg/ml, 10 μL/wound site
# [28] = Study III, 72 h p.i., 1 mg/ml, 10 μL/wound site
# [29] = Study V, 0.2 mg/ml, 50 μL/wound site, 24 h p.i.
# [30] = Study V, 0.2 mg/ml, 50 μL/wound site, 72 h p.i.
smiles,measurement,setting,value
CN[C@H](CC(C)C)C(=O)N[C@H]1C(=O)N[C@@H](CC(N)=O)C(=O)N[C@H]2C(=O)N[C@H]3C(=O)N[C@H](C(=O)N[C@H](C(=O)O)c4cc(O)cc(O)c4-c4cc3ccc4O)[C@H](O)c3ccc(c(Cl)c3)Oc3cc2cc(c3O[C@@H]2O[C@H](CO)[C@@H](O)[C@H](O)[C@H]2O[C@H]2C[C@](C)(N)[C@H](O)[C@H](C)O2)Oc2ccc(cc2Cl)[C@H]1O [Van],MBC Concentration,[1],0.02 µM
same,MBC Concentration,[2],0.02 µM
same,MBC Concentration,[3],0.02 µM
same,MBC Concentration,[4],0.08 µM
same,MBC Concentration,[5],0.04 µM
same,MBC Concentration,[6],1.25 µM
same,MBC Concentration,[7],2.50 µM
same,MBC Concentration,[8],0.31 µM
CN[C@H](CC(C)C)C(=O)N[C@H]1C(=O)N[C@@H](CC(N)=O)C(=O)N[C@H]2C(=O)N[C@H]3C(=O)N[C@H](C(=O)N[C@H](C(=O)O)c4cc(O)cc(O)c4-c4cc3ccc4O)[C@H](O)c3ccc(c(Cl)c3)Oc3cc2cc(c3O[C@@H]2O[C@H](CO)[C@@H](O)[C@H](O)[C@H]2O[C@H]2C[C@](C)(N)[C@H](O)[C@H](C)O2)Oc2ccc(cc2Cl)[C@H]1O [Vancomycin],MIC,[9],0.04 µM
same,MIC,[10],0.04 µM
same,MIC,[11],0.04 µM
same,MIC,[12],5 µM
same,MIC,[13],0.63 µM
same,MIC,[14],5 µM
same,MIC,[15],0.63 µM
same,log reduction in wound S. aureus,[16],1 log
same,Ig(CFU/wound site) 12 h p.i.,[17]; [24],8.02 ± 0.35 Ig(CFU/wound site)
same,ΔIg(CFU/wound site) vs 12 h infection control,[17]; [24],−0.57 ± 0.35 Ig(CFU/wound site)
same,Ig(CFU/wound site) 24 h p.i.,[17]; [25],7.29 ± 0.32 Ig(CFU/wound site)
same,ΔIg(CFU/wound site) vs 24 h infection control,[17]; [25],−1.44 ± 0.32 Ig(CFU/wound site)
same,Ig(CFU/wound site) 12 h p.i.,"[17]; Study I, 10 μL/wound site",8.47 ± 0.22 Ig(CFU/wound site)
same,Ig(CFU/wound site) 24 h p.i.,"[17]; Study I, 10 μL/wound site",7.67 ± 0.60 Ig(CFU/wound site)
same,ΔIg(CFU/wound site) vs 12 h infection control,"[17]; Study I, 10 μL/wound site",−0.11 ± 0.22 Ig(CFU/wound site)
same,ΔIg(CFU/wound site) vs 24 h infection control,"[17]; Study I, 10 μL/wound site",−1.12 ± 0.60 Ig(CFU/wound site)
same,"bacterial load decreased by, compared with 24 h infection control group","[17]; Study I, after twice administrations",1.12 Ig CFU/wound site
same,effect of a single dose at 12-hour post infection,"[17]; Study I, single dose at 10 μg",not manifest
same,Ig(CFU/wound site) 12 h p.i.,[17]; [26],7.83 ± 0.44 Ig(CFU/wound site)
same,Ig(CFU/wound site) 24 h p.i.,[17]; [26],7.50 ± 0.54 Ig(CFU/wound site)
same,ΔIg(CFU/wound site) vs 12 h infection control,[17]; [26],−0.76 ± 0.44 Ig(CFU/wound site)
same,ΔIg(CFU/wound site) vs 24 h infection control,[17]; [26],−1.36 ± 0.54 Ig(CFU/wound site)
same,Ig (CFU/wound site),"[17]; Study III, 24 h p.i., 1 mg/ml, 10 μL/wound site, 10 μg/wound site, inoculum 2.50E+06 CFU/wound site",7.67 ± 0.24 Ig (CFU/wound site)
same,ΔIg(CFU/wound site) vs infection control,"[17]; Study III, 24 h p.i., 1 mg/ml, 10 μL/wound site",−1.11 ± 0.24 Ig(CFU/wound site)
same,Ig (CFU/wound site),"[17]; Study III, 24 h p.i., 1 mg/ml, 50 μL/wound site, 50 μg/wound site",4.37 ± 0.26 Ig (CFU/wound site)
same,ΔIg(CFU/wound site) vs infection control,"[17]; Study III, 24 h p.i., 1 mg/ml, 50 μL/wound site",−4.40 ± 0.26 Ig(CFU/wound site)
same,Ig (CFU/wound site),[17]; [27],5.29 ± 0.77 Ig (CFU/wound site)
same,ΔIg(CFU/wound site) vs infection control,[17]; [27],−3.28 ± 0.77 Ig(CFU/wound site)
same,Ig (CFU/wound site),[17]; [28],5.12 ± 0.65 Ig (CFU/wound site)
same,ΔIg(CFU/wound site) vs infection control,[17]; [28],−2.83 ± 0.65 Ig(CFU/wound site)
same,Ig (CFU/wound site),[17]; [29],6.07 ± 0.52 Ig(CFU/wound site)
same,ΔIg(CFU/wound site) vs infection control,[17]; [29],−2.39 ± 0.52 Ig(CFU/wound site)
same,Ig (CFU/wound site),[17]; [30],5.05 ± 0.20 Ig(CFU/wound site)
same,ΔIg(CFU/wound site) vs infection control,[17]; [30],−3.22 ± 0.20 Ig(CFU/wound site)
C[C@H]1COc2c(N3CCN(C)CC3)c(F)cc3c(=O)c(C(=O)O)cn1c23 [levofloxacin],MIC,[18],4 mg/L
same,MIC,"[19]; ATCC29212, E. faecalis (ATCC 29212)",1 mg/L
same,MIC,"[19]; ATCC51299, E. faecalis (ATCC 51299)",0.5 mg/L
same,MIC,"[20]; ATCC25922, E. coli (ATCC 25922)",0.015 mg/L
same,MIC,"[20]; ATCCBAA2452, E. coli (ATCC BAA-2452)",0.03 mg/L
same,MIC,"[21]; ATCC700603, K. pneumoniae (ATCC 700603)",0.5 mg/L
same,MIC,"[21]; BAA1705, K. pneumoniae (ATCC BAA 1705)",> 8 mg/L
same,MIC,[22],1 mg/L
same,MIC,[23],0.12 mg/L
